The source of these data is publication PMC12298827, “Subchronic Toxicities of Four Per- and Polyfluoroalkyl Substances (PFASs) by Oral Exposure in Sprague–Dawley Rats” (Toxics, 2025).

The subject of one data set is male and female SD rats. Put plainly: 14-day dose-range-finding oral gavage study. It counts as in vivo, rat. As to conditions: both sexes, all doses. As to the method:
(§1) Dose-range-finding (14-day) studies were conducted using male and female rats to establish dose levels for 90-day studies and identify potential target organ toxicities. Male and female rats (n = 5 sex/group, a control and three dose groups, corn oil vehicle dose volume of 5 mL/kg) were administered PFASs by oral gavage daily for 14 days and euthanized on study day (SD) 15. The dose levels for PFHI, CTFPA, and MHFPK were 0, 30, 100, and 300 mg/kg-day. The dose levels for PFNAC were 0, 10, 30, and 100 mg/kg-day. The in vivo data collected included BW, BWCs, FC, cage-side observations, and physical exams. Gross necropsies, relative and absolute organ weights, and clinical chemistry data were collected for all the groups. Macroscopic and microscopic pathology examinations were conducted for the control and high-dose groups initially; the other groups were examined if justified by experimental findings. Plasma samples were analyzed ~2 h post dosing on day 1 and at day 15 for the parent PFAS chemical.
Neurotoxicity was evaluated using the functional observational battery (FOB) and measuring locomotor activity (LMA) 2–4 h post dosing on SDs 78–80 and 80–84, respectively. For both the 14- and 90-day studies, an ophthalmologic examination was conducted prior to randomization and near the end of the study, using indirect ophthalmoscopy and slit–lamp biomicroscopy (as needed) after the administration of a mydriatic solution.
Hematology, biochemistry, and coagulation endpoints were measured at the termination of the study. A Siemens Advia 2120i hematology analyzer (Siemens Healthineers, Erlangen, Germany) was used to measure (or calculate) the parameters related to the complete blood count, leukocyte differential count, and reticulocyte count. The hematology parameters are listed and described in Table 2. The prothrombin time […] and activated partial thromboplastin time (APTT) were measured using an Instrumentation Laboratory (Bedford, MA, USA) ACL Elite Pro coagulation analyzer (laser–nephelometric centrifugal method).
At necropsy, the rats were visually examined for external abnormalities and organ weights (absolute and relative to the BW and brain weight), which were recorded (paired organs weighed together). The tissues were preserved in 10% neutral buffered formalin (NBF), except for the ocular tissues, testes, and epididymides, which were preserved in modified Davidson’s fixative and later transferred to 10% NBF. Bone marrow smears were prepared from the femurs, and the slides were air-dried, fixed in methanol, stained, and stored at room temperature for possible future evaluation. The preserved tissues were embedded in paraffin, sectioned, stained with hematoxylin and eosin, and examined by a board-certified veterinary pathologist.

Data set [1] can be described thus: Parent chemical in rat plasma, 14-day study. The format is in vivo. As to the method:
as §1
On SD 1 of the 14-day study (~2 h post dosing), 0.2 mL of blood was collected via tail vein puncture in tubes containing K3EDTA and stored on wet ice. Prior to the scheduled euthanasia, blood (~1 mL) was collected from the jugular vein in tubes containing K3EDTA and stored on wet ice on SD 15, for the 14-day study, and SD 91, for the 90-day study. All the tubes were centrifuged at an ~1500 relative centrifugal force within 1 h of collection for 15 min at 5 ± 3 °C. The plasma was stored at −75 ± 15 °C until the analysis. PFNAC and PFHI were analyzed using a headspace GC–mass spectrometry (MS) method, as summarized in Table S3, and CTFPA was analyzed using an ultra-HPLC-MS method, as summarized in Table S4. The MHFPK samples were not analyzed because a method suitable for plasma was not available. The details concerning the preparation of the samples, method blanks, and matrix and QC standards for the analysis are available in the appendices to the study reports.

The nature of data set [2]: Solubility in dosing vehicles. It counts as physicochemical. As to conditions: corn oil, oil or lipid; read-out: Solubility in corn oil. The source says:
(§2) Based on solubility, corn oil (Welsh, Holme & Clark Inc., Newark, NJ, USA) was used as the vehicle for all four PFASs. Gas chromatography (GC) with flame ionization detection (FID) was used for the analysis of the PFNAC, PFHI, and MHFPK formulations, and a high-performance liquid chromatography (HPLC) method with ultraviolet spectroscopy was used for the CTFPA formulation. The details of the dosing solution analytical conditions are summarized in supplemental Tables S1 and S2. These analytical methods were developed specifically for these subchronic toxicity studies. […] Dosing solutions were prepared and replaced between at least every 29 days and no more than every 39 days.
(§3) PFNAC, PFHI, and MHFPK were soluble in corn oil up to 67, 200, and 100 mg/mL, respectively. As solubility in aqueous vehicles was 40 mg/mL or less for all three chemicals, corn oil was chosen as the vehicle. PFNAC was stable at the ambient temperature for 51 days at target concentrations of 0.2 and 10 mg/mL PFHI was stable in corn oil at ambient temperatures and target concentrations of 1 and 80 mg/mL for up to 70 days. MFHPK was stable in corn oil at room temperature for up to 44 days at target concentrations of 5 and 100 mg/mL. CTFPA was soluble in both deionized (DI) water and corn oil at 200 mg/mL when stored refrigerated overnight. […] Thus, corn oil was chosen as the vehicle for CTFPA. The stability of the CTFPA in the corn oil was evaluated for 8, 13, 15, 23, 35, and 42 days stored refrigerated in plastic bottles. CTFPA at 40 mg/mL was stable for up to 42 days. CTFPA at 0.6 mg/mL was stable for up to […] when refrigerated in plastic bottles but by 42 days had decreased to approximately 81%.

Data set [3] can be described thus: Stability of dosing formulations in corn oil. It counts as physicochemical. As to conditions: ambient temperature, 0.2 and 10 mg/mL.
Text: as §2, §3

For the molecule `C=CC(=O)OCC(F)(F)C(F)(F)C(F)(F)C(F)(F)C(F)(F)C(F)(F)C(F)(F)C(F)F` [PFNAC, 1H,1H,9H-Perfluorononyl acrylate], in the data set on male and female SD rats, the “Bodyweight and bodyweight gain” value is on record as “No changes”; the Clinical chemistry result is “From mild to moderate decreases in mean cholesterol levels in males at all the dose levels and in females at 30 and 100 mg/kg-day, with from mild to moderate increases in triglycerides in both sexes at 100 mg/kg-day and in females at 30 mg/kg-day”; the Clinical observations result was “None”; the Coagulation endpoints result is listed as “No effects”. Moreover, in the data set on male and female SD rats, the Feed consumption entry was “No effects”; the Gross lesions entry was “None”; the Hematology entry is on record as “No effects considered as chemical related”; the Histopathology result was “From minimal to moderate liver hypertrophy in males only in 2/5, 3/5, and 4/4 at doses of 10, 30, and 100 mg/kg-day, respectively”. In addition, in the data set with male and female SD rats, the Morbidity and mortality entry is given as “None”; the Ophthalmology entry is “No ocular lesions”; the Organ weight changes entry is “Dose-proportional increases in absolute and relative liver weights in all exposed males and females”. The “Parent chemical in plasma” value in data set [1] (female, Day 1, 100 mg/kg-day) is “Parent chemical not detected at the highest dose”. Also, in data set [1] (female, Day 15, 100 mg/kg-day), the “Parent chemical in plasma” value is “Parent chemical not detected at the highest dose”. Also, in data set [1] (male, Day 1 (2 hours post dosing), 100 mg/kg-day), the “Parent chemical in plasma” value was “Parent chemical not detected at the highest dose”. Moreover, in data set [1] (male, Day 15, 100 mg/kg-day), the “Parent chemical in plasma” value was “Parent chemical not detected at the highest dose”. Moreover, the solubility in data set [2] is not above 67 mg/mL. Moreover, in data set [3], the “Stable in corn oil for” value is reported as 51 days.
